The results in this text go back to patent US9115122B2, “Non-ATP dependent inhibitors of extracellular signal-regulated kinase (ERK)” (UNIVERSITY OF MARYLAND, BALTIMORE, priority 2012, dated 2015).

Common to all, as to experiment: Cell proliferation WST-1 assay, single dose (Example 4)
Type in all cases: cell-based
Common to all, as to details: 100 μM, 48 hours

One data set concerns A375 melanoma cells. The essentials: (§1)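 Seed ~5000 cells/well; recover 16-20 h; treat with compound 48 h; add WST-1; read A450, subtract A650; normalize to DMSO-only cells.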
The subject of a further data set is HL-60 leukemic cells. The essentials:
as §1

For data set [1], the system named is HeLa cervical carcinoma cells. The essentials: as §1
For data set [2], the system named is Jurkat T-cell leukemia cells. The essentials: as §1
The subject of the next data set is RPMI-7951 melanoma cells. The procedure, abridged: as §1
The next data set deals with SK-MEL-28 melanoma cells. The procedure, abridged: as §1

Molecules are shown by their SMILES.

On to `CCOc1ccc(/C=C2\SC(=O)N(CC(=O)O)C2=O)cc1` [Compound 28h, (Z)-2-(5-(4-ethoxybenzylidene)-2,4-dioxothiazolidin-3-yl)acetic acid], for which the “Cell Viability (% of Vehicle) A375” value in the data set on A375 melanoma cells was 122 ± 6 % of Vehicle. In addition, in the data set with HL-60 leukemic cells, the “Cell Viability (% of Vehicle) HL-60” value is 97 ± 27 % of Vehicle. The “Cell Viability (% of Vehicle) HeLa” value in data set [1] is listed as 104 ± 3 % of Vehicle. For the same compound, in data set [2], the “Cell Viability (% of Vehicle) Jurkat” value was 108 ± 3 % of Vehicle. In addition, the “Cell Viability (% of Vehicle) RPMI-7951” value in the data set on RPMI-7951 melanoma cells is 133 ± 9 % of Vehicle. For the same compound, in the data set with SK-MEL-28 melanoma cells, the “Cell Viability (% of Vehicle) SK-MEL-28” value is given as 106 ± 1 % of Vehicle.

For `CCOc1ccc(/C=C2\SC(=O)N(Cc3ccccc3)C2=O)cc1` [Compound 28i, (Z)-3-benzyl-5-(4-ethoxybenzylidene)thiazolidine-2,4-dione], in the data set with A375 melanoma cells, the “Cell Viability (% of Vehicle) A375” value is given as 110 ± 4 % of Vehicle. Moreover, the “Cell Viability (% of Vehicle) HL-60” value in the data set on HL-60 leukemic cells is recorded as 65 ± 1 % of Vehicle. The “Cell Viability (% of Vehicle) HeLa” value in data set [1] was 95 ± 4 % of Vehicle. Also, the “Cell Viability (% of Vehicle) Jurkat” value in data set [2] is on record as 105 ± 4 % of Vehicle. Besides, the “Cell Viability (% of Vehicle) RPMI-7951” value in the data set with RPMI-7951 melanoma cells is 114 ± 20 % of Vehicle. The “Cell Viability (% of Vehicle) SK-MEL-28” value with SK-MEL-28 melanoma cells is given as 90 ± 3 % of Vehicle.

Take `CCOc1ccc(/C=C2\SC(=O)N(Cc3ccccn3)C2=O)cc1` [Compound 28j, (Z)-5-(4-ethoxybenzylidene)-3-(pyridin-2-ylmethyl)thiazolidine-2,4-dione]: in the data set with A375 melanoma cells, the “Cell Viability (% of Vehicle) A375” value is on record as 124 ± 6 % of Vehicle. For the same compound, the “Cell Viability (% of Vehicle) HL-60” value with HL-60 leukemic cells is listed as 89 ± 31 % of Vehicle. Also, the “Cell Viability (% of Vehicle) HeLa” value in data set [1] is recorded as 89 ± 5 % of Vehicle. Moreover, in data set [2], the “Cell Viability (% of Vehicle) Jurkat” value is 101 ± 7 % of Vehicle. Besides, in the data set with RPMI-7951 melanoma cells, the “Cell Viability (% of Vehicle) RPMI-7951” value is listed as 114 ± 5 % of Vehicle. The “Cell Viability (% of Vehicle) SK-MEL-28” value in the data set with SK-MEL-28 melanoma cells is given as 95 ± 3 % of Vehicle.

As for `CCOc1ccc(/C=C2\SC(=O)N(Cc3cccnc3)C2=O)cc1` [Compound 28k, (Z)-5-(4-ethoxybenzylidene)-3-(pyridin-3-ylmethyl)thiazolidine-2,4-dione], in the data set on A375 melanoma cells, the “Cell Viability (% of Vehicle) A375” value is 105 ± 4 % of Vehicle. Besides, in the data set on HL-60 leukemic cells, the “Cell Viability (% of Vehicle) HL-60” value is listed as 65 ± 12 % of Vehicle. The “Cell Viability (% of Vehicle) HeLa” value in data set [1] was 80 ± 2 % of Vehicle. Besides, the “Cell Viability (% of Vehicle) Jurkat” value in data set [2] is listed as 98 ± 2 % of Vehicle. Further, the “Cell Viability (% of Vehicle) RPMI-7951” value with RPMI-7951 melanoma cells is listed as 102 ± 2 % of Vehicle. Further, the “Cell Viability (% of Vehicle) SK-MEL-28” value with SK-MEL-28 melanoma cells is 79 ± 4 % of Vehicle.

Consider `CCOc1ccc(/C=C2\SC(=O)N(Cc3ccncc3)C2=O)cc1` [Compound 28l, (Z)-5-(4-ethoxybenzylidene)-3-(pyridin-4-ylmethyl)thiazolidine-2,4-dione], for which the “Cell Viability (% of Vehicle) A375” value in the data set on A375 melanoma cells is given as 105 ± 12 % of Vehicle. Moreover, the “Cell Viability (% of Vehicle) HL-60” value with HL-60 leukemic cells was 82 ± 54 % of Vehicle. Moreover, the “Cell Viability (% of Vehicle) HeLa” value in data set [1] was 81 ± 5 % of Vehicle. In addition, in data set [2], the “Cell Viability (% of Vehicle) Jurkat” value is listed as 96 ± 11 % of Vehicle. In addition, in the data set on RPMI-7951 melanoma cells, the “Cell Viability (% of Vehicle) RPMI-7951” value is reported as 102 ± 3 % of Vehicle. Moreover, in the data set with SK-MEL-28 melanoma cells, the “Cell Viability (% of Vehicle) SK-MEL-28” value is 79 ± 3 % of Vehicle.

Turning to `CCOc1ccc(/C=C2\SC(=O)N(Cc3ccc(C#N)cc3)C2=O)cc1` [Compound 28m, (Z)-4-((5-(4-ethoxybenzylidene)-2,4-dioxothiazolidin-3-yl)methyl)benzonitrile], the “Cell Viability (% of Vehicle) A375” value in the data set with A375 melanoma cells is on record as 108 ± 3 % of Vehicle. In the data set on HL-60 leukemic cells, the “Cell Viability (% of Vehicle) HL-60” value is recorded as 86 ± 37 % of Vehicle. Moreover, in data set [1], the “Cell Viability (% of Vehicle) HeLa” value is 95 ± 3 % of Vehicle. Besides, the “Cell Viability (% of Vehicle) Jurkat” value in data set [2] is 103 ± 11 % of Vehicle. In the data set on RPMI-7951 melanoma cells, the “Cell Viability (% of Vehicle) RPMI-7951” value is given as 106 ± 8 % of Vehicle. For the same compound, the “Cell Viability (% of Vehicle) SK-MEL-28” value with SK-MEL-28 melanoma cells is reported as 97 ± 7 % of Vehicle.
